Structures can show the parent of a compound that is named as a salt.
Experiments:
glutathione (GSH) = test: In vitro cell experiments, intracellular glutathione concentration; format: cell-based
[1] = tested on: Nrf2 knockout mice with MPTP-induced dopaminergic neuronal damage; test: MPTP experiments on transgenic mice with the Nrf2 gene knocked out; format: in vivo
Source text: Inferring from the inclusion of salicyl in their molecule structure, this new target may be associated with anti-neuroinflammation.

MS patients [2] = conditions: CONFIRM; cited from earlier work
[3] = tested on: MPTP-induced dopaminergic neuron-damaged PD mouse models; test: MPTP-induced dopaminergic neuron damage PD mouse model, dose response protection and safety; format: in vivo, mice; conditions: for lowest dosage for protective effect: dopamine neuron protection; for dosage where toxic effects began to appear: mouse, in vivo, ip
Experimental: Using MSF and ESF to conduct therapeutic studies with widely accepted MPTP-induced dopaminergic neuron-damaged PD mouse models. […] For the experimental groups of MSF and ESF, 10 dose groups were used for each drug. 10 mice in each group. Both the experimental group and the control group used intraperitoneal administration. The control group was treated with DMF. Statistically significant protective effects of dopamine neurons were found, and the dose-effect relationship was observed.

MS patients [4] = conditions: DEFINE; cited from earlier work
[5] = tested on: MPTP-induced mouse PD models; conditions: cited from earlier work
[6] = HPLC level of MSF and ESF in peripheral blood, liver and brain tissue after intraperitoneal injection; format: in vivo; conditions: after intraperitoneal injection in mice
Source text: Unlike the positive control drug DMF which worked differently.

[7] = tested on: models of chronic MPTP-induced dopamine neuron damage in mice; test: Chronic MPTP-induced dopamine neuron damage in mice; format: in vivo; conditions: 200 mg/kg/d, chronic MPTP model
glutathione = conditions: unlike DMF; cited from earlier work
[8] = Preliminary experiments on pharmacological activities; conditions: compared with methyl and ethyl salicyl fumarate
Source text: 7. The applicants used the same fore-mentioned synthesis routes to perform esterification of salicylic acid and fumarate esters. They obtained propyl salicyl fumarate (compound structural formula shown as C), isopropyl salicyl fumarate (compound structural formula shown as D), and butyl salicyl fumarate (compound structural formula shown as E) respectively.

[9] = intraperitoneal administration, MPTP mice

For `COC(=O)/C=C/C(=O)OC` [DMF, dimethyl fumarate, reference compound], the “effect on glutathione concentration in the cell” value (from here on “effect … in the cell”) (glutathione (GSH)) is listed as “had the effect of depleting glutathione”, the “dopaminergic neuron protective effect” value [1] is listed as “lost the dopaminergic neuron protective effect” and the reduction in recurrence (MS patients [2]) is listed as 34%. For the same compound, the “dosage where DMF showed toxic effect” value [3, 9] was > 200 mg, the “lowest dosage for protective effect” value [3, 9] was 50 mg/kg/day and the “reduction in occurrences of disability” value (MS patients [4]) was 38%. The “reduction in occurrences of recurrence” value (MS patients [4]) was 49% and the “protective effects against the neural toxicity of MPTP” value [5] was “exhibit protective effects against the neural toxicity of MPTP”.
In the case of `CCOC(=O)/C=C/C(=O)OCc1ccccc1O` [ESF, ethyl salicyl fumarate], the “effect … in the cell” value (glutathione (GSH)) is reported as “no effect on the concentration of glutathione in the cell”, the “dopaminergic neuron protective effect” value [1] is reported as “still show significant protective effects” and the “protective effects of dopamine neurons compared to DMF” value [3, 9] is reported as “more significant protective effects”. For the same compound, the “lowest dosage for protective effect” value [3, 9] was 10 mg/kg/day, the “dosage where toxic effects began to appear” value [3] was > 500 mg/kg/day and the “entry into the brain through the blood-brain barrier” value [6] was “can enter the brain through the blood-brain barrier”. For the same compound, the “molecular structure in the brain” value [6] was “remains unchanged in the brain” and the dopamine neuron protection [7] was “significant dopamine neuron protection”.
For `COC(=O)/C=C/C(=O)O` [MMF, monomethyl fumarate], the “glutathione consumption, inhibition of mitochondrial and glycolysis functions” value (glutathione) is given as “does not consume glutathione and inhibit mitochondrial and glycolysis functions”.
For `COC(=O)/C=C/C(=O)OCc1ccccc1O` [MSF, methyl salicyl fumarate], the “effect … in the cell” value (glutathione (GSH)) was “no effect on the concentration of glutathione in the cell”, the “dopaminergic neuron protective effect” value [1] was “still show significant protective effects” and the “protective effects of dopamine neurons compared to DMF” value [3, 9] was “more significant protective effects”. For the same compound, the “lowest dosage for protective effect” value [3, 9] was 10 mg/kg/day, the “dosage where toxic effects began to appear” value [3] was > 500 mg/kg/day and the “entry into the brain through the blood-brain barrier” value [6] was “can enter the brain through the blood-brain barrier”. For the same compound, the “molecular structure in the brain” value [6] was “remains unchanged in the brain” and the dopamine neuron protection [7] was “significant dopamine neuron protection”.
With `CCCCOC(=O)/C=C/C(=O)Oc1ccccc1C(=O)O` [butyl salicyl fumarate] the pharmacological activities [8] was “lower than those of methyl salicyl fumarate and ethyl salicyl fumarate”.
For `CC(C)OC(=O)/C=C/C(=O)Oc1ccccc1C(=O)O` [isopropyl salicyl fumarate], the pharmacological activities [8] was “lower than those of methyl salicyl fumarate and ethyl salicyl fumarate”.
With `CCCOC(=O)/C=C/C(=O)Oc1ccccc1C(=O)O` [propyl salicyl fumarate] the pharmacological activities [8] was “lower than those of methyl salicyl fumarate and ethyl salicyl fumarate”.

Source: patent US11866401B2, “Salicyl fumarate derivative and its application in the treatment of Parkinson's disease and other neurodegenerative diseases” (CHONGQING NEUROPARK BIOSCIENCE CO., LTD., priority 2017, dated 2024)
